Common to all, as to assay: relative viability (nuclei count vs DMSO), 5 days (fraction); higher = more cells survive
Compound in the assay “Pazopanib + Tozasertib”: Cc1ccc(Nc2nccc(N(C)c3ccc4c(C)n(C)nc4c3)n2)cc1S(N)(=O)=O [Pazopanib] + Cc1cc(Nc2cc(N3CCN(C)CC3)nc(Sc3ccc(NC(=O)C4CC4)cc3)n2)n[nH]1 [Tozasertib] (partner 0.1 µM)
In short, it runs like this: (§1)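 Lung cancer cell lines were pin-tool dosed in 1536-well plates on the day after seeding, with either a lone drug or a fixed anchor-drug dose plus five library-drug doses (not always all listed) in √10 steps. Nuclei were counted on 4× images after 5 days. Relative viability is the ratio of treated-well to vehicle-well nuclei counts, with each value a median of duplicate plates.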

Compound in the assay “Pazopanib + Olaparib”: Cc1ccc(Nc2nccc(N(C)c3ccc4c(C)n(C)nc4c3)n2)cc1S(N)(=O)=O [Pazopanib] + O=C(c1cc(Cc2n[nH]c(=O)c3ccccc23)ccc1F)N1CCN(C(=O)C2CC2)CC1 [Olaparib] (partner 8 µM)
In short, it runs like this: as §1

Compound in the assay “Ponatinib + Foretinib”: Cc1ccc(C(=O)Nc2ccc(CN3CCN(C)CC3)c(C(F)(F)F)c2)cc1C#Cc1cnc2cccnn12 [Ponatinib] + COc1cc2c(Oc3ccc(NC(=O)C4(C(=O)Nc5ccc(F)cc5)CC4)cc3F)ccnc2cc1OCCCN1CCOCC1 [Foretinib] (partner 0.25 µM)
In a few lines:
as §1

Compound in the assay “Ponatinib + Pictilisib”: Cc1ccc(C(=O)Nc2ccc(CN3CCN(C)CC3)c(C(F)(F)F)c2)cc1C#Cc1cnc2cccnn12 [Ponatinib] + CS(=O)(=O)N1CCN(Cc2cc3nc(-c4cccc5[nH]ncc45)nc(N4CCOCC4)c3s2)CC1 [Pictilisib] (partner 1 µM)
In a few lines:
as §1

This note sets out measurements from the supplement of paper PMC10307832.

With NCI-H1648, the relative viability was found to be 0.387 with Pazopanib + Tozasertib (first compound 0.01 µM); 0.57 in the assay with Pazopanib + Tozasertib (first compound 0.03162 µM); 0.398 with Pazopanib + Tozasertib (first compound 0.1 µM); 0.459 in the assay with Pazopanib + Tozasertib (first compound 0.3162 µM); 0.476 with Pazopanib + Tozasertib (first compound 1 µM); 0.61 with Pazopanib + Olaparib (first compound 0.1 µM). Also, the figures for the relative viability with Pazopanib + Olaparib (first compound 0.3162 µM) and in the assay with Pazopanib + Olaparib (first compound 1 µM) were 0.515 and 0.419, respectively.

Take NCI-H1395: the relative viability stood at 0.903 with Ponatinib + Foretinib (first compound 0.002 µM); 0.996 with Ponatinib + Foretinib (first compound 0.006325 µM); 0.945 with Ponatinib + Foretinib (first compound 0.06325 µM); 0.904 with Ponatinib + Foretinib (first compound 0.2 µM); 0.696 with Ponatinib + Pictilisib (first compound 0.006325 µM); 0.657 with Ponatinib + Pictilisib (first compound 0.06325 µM). Besides, the relative viability stood at 0.581 in the assay with Ponatinib + Pictilisib (first compound 0.2 µM); 0.793 with Pazopanib + Tozasertib (first compound 0.01 µM); 0.715 with Pazopanib + Tozasertib (first compound 0.03162 µM); 0.764 in the assay with Pazopanib + Tozasertib (first compound 0.1 µM); 0.915 with Pazopanib + Tozasertib (first compound 0.3162 µM); 0.747 with Pazopanib + Tozasertib (first compound 1 µM). Besides, the relative viability with Pazopanib + Olaparib (first compound 0.01 µM) was found to be 0.428; with Pazopanib + Olaparib (first compound 0.03162 µM), 0.44; with Pazopanib + Olaparib (first compound 0.1 µM), 0.461; in the assay with Pazopanib + Olaparib (first compound 0.3162 µM), 0.446; with Pazopanib + Olaparib (first compound 1 µM), 0.473.

In the case of NCI-H2347, the relative viability with Ponatinib + Foretinib (first compound 0.006325 µM) was 0.818; with Ponatinib + Foretinib (first compound 0.06325 µM), 1.38; with Ponatinib + Foretinib (first compound 0.2 µM), 1.01; with Ponatinib + Pictilisib (first compound 0.002 µM), 0.677; with Ponatinib + Pictilisib (first compound 0.006325 µM) it was 0.849; with Ponatinib + Pictilisib (first compound 0.06325 µM), 0.692. Moreover, the relative viability in the assay with Ponatinib + Pictilisib (first compound 0.2 µM) was 0.414; with Pazopanib + Tozasertib (first compound 0.01 µM), 0.45; with Pazopanib + Tozasertib (first compound 0.03162 µM), 0.586; in the assay with Pazopanib + Tozasertib (first compound 0.1 µM) it was 0.607; with Pazopanib + Tozasertib (first compound 0.3162 µM) it was 0.593; with Pazopanib + Tozasertib (first compound 1 µM), 0.588. Also, the relative viability in the assay with Pazopanib + Olaparib (first compound 0.01 µM) was 0.541; with Pazopanib + Olaparib (first compound 0.03162 µM) it was 0.609; in the assay with Pazopanib + Olaparib (first compound 0.1 µM), 0.538; with Pazopanib + Olaparib (first compound 0.3162 µM), 0.575; in the assay with Pazopanib + Olaparib (first compound 1 µM), 0.558.

As to HCC-366, the relative viability with Ponatinib + Foretinib (first compound 0.002 µM) is 0.887; with Ponatinib + Foretinib (first compound 0.006325 µM), 0.939; in the assay with Ponatinib + Foretinib (first compound 0.06325 µM), 0.955; with Ponatinib + Foretinib (first compound 0.2 µM) it was 0.956; with Ponatinib + Pictilisib (first compound 0.002 µM) it was 0.149; in the assay with Ponatinib + Pictilisib (first compound 0.006325 µM), 0.101. The relative viability with Ponatinib + Pictilisib (first compound 0.06325 µM) worked out at 0.146; in the assay with Ponatinib + Pictilisib (first compound 0.2 µM) it was 0.275; with Pazopanib + Tozasertib (first compound 0.01 µM) it was 0.124; with Pazopanib + Tozasertib (first compound 0.03162 µM) it was 0.132; with Pazopanib + Tozasertib (first compound 0.1 µM), 0.0845; in the assay with Pazopanib + Tozasertib (first compound 0.3162 µM) it was 0.163. Also, the relative viability amounted to 0.068 in the assay with Pazopanib + Tozasertib (first compound 1 µM); 0.31 in the assay with Pazopanib + Olaparib (first compound 0.01 µM); 0.357 with Pazopanib + Olaparib (first compound 0.03162 µM); 0.396 in the assay with Pazopanib + Olaparib (first compound 0.1 µM); 0.396 with Pazopanib + Olaparib (first compound 0.3162 µM); 0.35 with Pazopanib + Olaparib (first compound 1 µM).

Take 201T: the relative viability was 1.1 with Ponatinib + Foretinib (first compound 0.002 µM); 1.1 in the assay with Ponatinib + Foretinib (first compound 0.006325 µM); 1.18 with Ponatinib + Foretinib (first compound 0.06325 µM); 1.03 with Ponatinib + Foretinib (first compound 0.2 µM); 0.649 with Ponatinib + Pictilisib (first compound 0.002 µM); 0.685 in the assay with Ponatinib + Pictilisib (first compound 0.006325 µM). For the same cell line, the relative viability in the assay with Ponatinib + Pictilisib (first compound 0.06325 µM) was 0.801; with Ponatinib + Pictilisib (first compound 0.2 µM), 0.725; with Pazopanib + Tozasertib (first compound 0.01 µM) it was 0.961; with Pazopanib + Tozasertib (first compound 0.03162 µM) it was 1; with Pazopanib + Tozasertib (first compound 0.1 µM), 0.961; in the assay with Pazopanib + Tozasertib (first compound 0.3162 µM), 0.908. Moreover, the relative viability with Pazopanib + Tozasertib (first compound 1 µM) stood at 0.926; in the assay with Pazopanib + Olaparib (first compound 0.01 µM) it was 0.863; in the assay with Pazopanib + Olaparib (first compound 0.03162 µM), 0.865; with Pazopanib + Olaparib (first compound 0.1 µM) it was 0.85; in the assay with Pazopanib + Olaparib (first compound 0.3162 µM), 0.825; in the assay with Pazopanib + Olaparib (first compound 1 µM), 0.822.

In the case of HCC-827, the relative viability was determined as 0.971 with Ponatinib + Foretinib (first compound 0.002 µM); 1.02 with Ponatinib + Foretinib (first compound 0.006325 µM); 0.997 in the assay with Ponatinib + Foretinib (first compound 0.06325 µM); 1 in the assay with Ponatinib + Foretinib (first compound 0.2 µM); 0.952 with Ponatinib + Pictilisib (first compound 0.002 µM); 1.13 with Ponatinib + Pictilisib (first compound 0.006325 µM). Besides, the relative viability was determined as 0.899 with Ponatinib + Pictilisib (first compound 0.06325 µM); 0.854 in the assay with Ponatinib + Pictilisib (first compound 0.2 µM); 0.436 in the assay with Pazopanib + Tozasertib (first compound 0.01 µM); 0.44 in the assay with Pazopanib + Tozasertib (first compound 0.03162 µM); 0.42 with Pazopanib + Tozasertib (first compound 0.1 µM); 0.414 with Pazopanib + Tozasertib (first compound 0.3162 µM). Further, the relative viability was found to be 0.433 with Pazopanib + Tozasertib (first compound 1 µM); 0.675 with Pazopanib + Olaparib (first compound 0.01 µM); 0.644 in the assay with Pazopanib + Olaparib (first compound 0.03162 µM); 0.691 in the assay with Pazopanib + Olaparib (first compound 0.1 µM); 0.706 with Pazopanib + Olaparib (first compound 0.3162 µM); 0.673 in the assay with Pazopanib + Olaparib (first compound 1 µM).

As for NCI-H650, the relative viability with Ponatinib + Foretinib (first compound 0.002 µM) stood at 0.968; with Ponatinib + Foretinib (first compound 0.006325 µM), 1.03; with Ponatinib + Foretinib (first compound 0.06325 µM), 1.02; with Ponatinib + Foretinib (first compound 0.2 µM), 0.884; in the assay with Ponatinib + Pictilisib (first compound 0.002 µM), 0.843; with Ponatinib + Pictilisib (first compound 0.006325 µM) it was 0.739. Further, the relative viability is 0.758 with Ponatinib + Pictilisib (first compound 0.06325 µM); 0.88 with Ponatinib + Pictilisib (first compound 0.2 µM); 0.688 with Pazopanib + Tozasertib (first compound 0.01 µM); 0.826 with Pazopanib + Tozasertib (first compound 0.03162 µM); 0.691 with Pazopanib + Tozasertib (first compound 0.1 µM); 0.804 in the assay with Pazopanib + Tozasertib (first compound 0.3162 µM). Moreover, the relative viability in the assay with Pazopanib + Tozasertib (first compound 1 µM) came out at 0.655; in the assay with Pazopanib + Olaparib (first compound 0.01 µM) it was 0.404; with Pazopanib + Olaparib (first compound 0.03162 µM) it was 0.411; in the assay with Pazopanib + Olaparib (first compound 0.1 µM), 0.394; with Pazopanib + Olaparib (first compound 0.3162 µM), 0.391; in the assay with Pazopanib + Olaparib (first compound 1 µM), 0.37.

Take NCI-H2023: the relative viability was 0.778 with Ponatinib + Foretinib (first compound 0.002 µM); 0.89 with Ponatinib + Foretinib (first compound 0.006325 µM); 0.962 with Ponatinib + Foretinib (first compound 0.06325 µM); 0.657 with Ponatinib + Foretinib (first compound 0.2 µM); 0.261 with Ponatinib + Pictilisib (first compound 0.002 µM); 0.292 with Ponatinib + Pictilisib (first compound 0.006325 µM). In addition, the relative viability came to 0.298 with Ponatinib + Pictilisib (first compound 0.06325 µM); 0.212 with Ponatinib + Pictilisib (first compound 0.2 µM); 0.467 with Pazopanib + Tozasertib (first compound 0.01 µM); 0.318 in the assay with Pazopanib + Tozasertib (first compound 0.03162 µM); 0.38 with Pazopanib + Tozasertib (first compound 0.1 µM); 0.331 in the assay with Pazopanib + Tozasertib (first compound 0.3162 µM). Also, the relative viability with Pazopanib + Tozasertib (first compound 1 µM) was 0.242; with Pazopanib + Olaparib (first compound 0.01 µM), 0.441; in the assay with Pazopanib + Olaparib (first compound 0.03162 µM), 0.487; with Pazopanib + Olaparib (first compound 0.1 µM), 0.516; in the assay with Pazopanib + Olaparib (first compound 0.3162 µM), 0.466; with Pazopanib + Olaparib (first compound 1 µM) it was 0.45.

As for NCI-H596, the relative viability was found to be 0.732 with Ponatinib + Foretinib (first compound 0.002 µM); 0.753 with Ponatinib + Foretinib (first compound 0.006325 µM); 0.851 with Ponatinib + Foretinib (first compound 0.06325 µM); 0.721 with Ponatinib + Foretinib (first compound 0.2 µM); 0.354 in the assay with Ponatinib + Pictilisib (first compound 0.002 µM); 0.401 in the assay with Ponatinib + Pictilisib (first compound 0.006325 µM). For the same cell line, the relative viability with Ponatinib + Pictilisib (first compound 0.06325 µM) turned out to be 0.36; with Ponatinib + Pictilisib (first compound 0.2 µM) it was 0.374; in the assay with Pazopanib + Tozasertib (first compound 0.03162 µM), 0.942; with Pazopanib + Tozasertib (first compound 0.1 µM) it was 0.856; with Pazopanib + Tozasertib (first compound 0.3162 µM) it was 0.936; with Pazopanib + Tozasertib (first compound 1 µM), 0.761. In addition, the relative viability with Pazopanib + Olaparib (first compound 0.01 µM) came out at 0.674; in the assay with Pazopanib + Olaparib (first compound 0.03162 µM) it was 0.661; with Pazopanib + Olaparib (first compound 0.1 µM) it was 0.676; with Pazopanib + Olaparib (first compound 0.3162 µM) it was 0.749; with Pazopanib + Olaparib (first compound 1 µM) it was 0.629.
